# In patent publication US20240307283A1, “COMPOSITIONS AND METHODS FOR DECREASING PIGMENTATION” (The General Hospital Corporation, priority 2021, published 2024):
# Experiments:
# [1] = tested on: human melanocytes, dermal fibroblasts, and keratinocytes; test: Cell viability of human skin cells with NNT inhibitors; assay type: cell-based; settings: up to 10 μM, FIG. 10B
# Protocol: Primary human keratinocytes were cultured in EpiLife® medium supplemented with human keratinocyte growth supplement (HKGS, ThermoFisher Scientific). Primary human fibroblasts were cultured in medium 106 supplemented with low serum growth supplement (LSGS, ThermoFisher Scientific). 10^6 and […] cells were plated per well of 6-well and 96-well plates, respectively. Drugs indicated in the figure legends were dissolved in DMSO and added 1:1000 to the culture media for 24 h at the concentrations indicated.
# Cell viability assay: Human melanoma cell lines and isolated primary cultured human melanocytes were propagated and tested in early passage (Passages 7 to 9). The effects of NNT inhibitors (2,3BD, DCC, and Palmitoyl coenzyme A lithium salt) on cell viability were evaluated by the CellTiter-Glo Luminescent Cell Viability Assay (Promega, #G7570) and measurement of luminescence was performed on an EnVision 2104 Multilabel Reader (PerkinElmer). Human melanoma cell lines and primary melanocytes were plated on 96-well white plates (10,000 cells/well) and were treated with the NNT inhibitors at the indicated concentrations for 24 h.
# human skin explants [2] = test: Pigmentation of human skin explants with topical NNT inhibitors; settings: human skin explants, data not shown
# murine Melan-A cells = test: Melanin content of Melan-A cells with NNT inhibitors; assay type: cell-based, mouse; settings: 2 mM, FIG. 3A
# Protocol: Murine Melan-A (Bennett et al., 1987) cells were obtained from the Wellcome Trust Functional Genomics Cell Bank. Melan-A cells were grown in RPMI 1640 supplemented with 10% FBS or FetalPlex (Gemini Bio-Products, #100-602), 100,000 U/L penicillin, 100 mg/L streptomycin sulphate, 100× Glutamax, and 200 nM TPA.
# In vitro culture with NNT inhibitors: 2,3-Butanedione 97% (2,3 BD) (Sigma Aldrich, #B85307) (1 μM, 10 μM, 100 μM, 2 mM), N,N-Dicyclohexylcarbodiimide (DCC) (Sigma Aldrich, #D80002) (1 mM, 2 mM, 10 mM), and Palmitoyl coenzyme A lithium salt (Sigma Aldrich, #P9716) (10 μM, 2 mM) were reconstituted with DMSO (American Type Culture Collection, 4-X).
# (§1) Melanin quantification: Equal numbers of cells were plated in 6-well plates. The cells were then harvested 72-96 hours post siRNA or NNT inhibitors compounds, as indicated in the legends, pelleted, washed in PBS and counted. 10^6 cells were used for measurement of protein concentration with the Pierce BCA protein assay (Thermo Fisher Scientific, #23225) and 10^6 cells were resuspended in 60 μl of 1 N NaOH solution and incubated at 60° C. for 2 h or until the melanin was completely dissolved. After cooling down to room temperature, samples were centrifuged at 500×g for 10 min and the supernatants were loaded onto a 96-well plate. The melanin content was determined by measuring the absorbance at 405 nm on an Envision plate reader, compared with a melanin standard (0 to 50 μg/ml; Sigma Aldrich, #M8631). Melanin content was expressed as micrograms per milligram of protein.
# NNT = test: Immunoblot of NNT after redox modulators; assay type: cell-based, human; settings: UACC257, NAC 5 mM, MitoTEMPO 20 μM, H2O2 100 μM, daily for 72 hours
# Protocol: Immunoblotting: Whole-cell protein lysates were prepared using RIPA lysis buffer (Sigma-Aldrich, #R0278) supplemented with Protease and Phosphatase Inhibitor (ThermoFisher Scientific, #P178445). Protein concentrations were quantified using the Pierce BCA protein assay (ThermoFisher Scientific, #23225). Immunoblotting was performed by standard techniques using 4-15% Criterion TGX Precast Midi Protein gels (Bio-Rad Laboratories, #5671084) and transferring to 0.2 μm nitrocellulose membranes (Bio-Rad Laboratories, #1620112). Membranes were blocked with 5% non-fat milk (Boston BioProducts, #P-1400) in PBS containing 0.1% […] and incubated with one of the following primary antibodies at the indicated dilution (antibody sources are in the Key Resources Table): 1:20 dilution of anti-MITF monoclonal antibody CS, 1:1,000 dilution of anti-Tyrosinase clone T311, 1:1,000 dilution of anti-Mitofusin-2 antibody [6A8], 1:500 dilution of TRP2/DCT antibody, 1:1,000 dilution of anti-NNT antibody [8B4BB10], 1:1,000 dilution of anti-IDH1 ([…]) antibody, 1:1,000 dilution of p53 antibody [PAb 240], 1:1,000 dilution of TYRP1 antibody [EPR21960], 1:1,000 dilution of mouse monoclonal antibody Pmel17 (E-7), or 1:1,000 dilution of LC3B (D11) rabbit monoclonal antibody. Incubation with the appropriate secondary antibody followed, either a 1:5,000 dilution of donkey anti-Rabbit IgG-HRP or a 1:3,000 dilution of Amersham ECL mouse IgG, HRP. To verify equal loading of samples, membranes were re-probed with a 1:20,000 dilution of monoclonal anti-β-actin-peroxidase (Sigma Aldrich, #A3854). Protein bands were visualized using Western Lightning Plus ECL (PerkinElmer, #NEL105001EA) and quantified using ImageJ software (NIH).
# [3] = tested on: primary human melanocytes; test: Melanosome maturation by transmission electron microscopy; assay type: cell-based; settings: NAC 5 mM or MitoTEMPO 20 μM; for siNNT-induced melanosome maturation: daily for 96 h; for total number of melanosomes per um^2: daily for 96 hours
# Protocol: Transmission electron microscopy: Cultured primary human melanocytes were grown in Medium 254 in 6-well transwell plates. Ninety-six h post siRNA or overexpression treatment, the cells were fixed with a modified Kamovsky's fixative (2% paraformaldehyde/2.5% glutaraldehyde in 0.1 M sodium cacodylate buffer, pH 7.4) for at least 2 h on a gentle rotator, followed by rinsing several times with 0.1 M cacodylate buffer. Then, the cells were treated with 1% osmium tetroxide/0.1 M cacodylate buffer for 1 h, rinsed thoroughly in 0.1 M cacodylate buffer, scraped, and the cell suspensions were transferred into 15 ml centrifuge tubes and centrifuged (3,000 rpm) for 15 min at 4° C.). Pelleted material was embedded in 2% agarose, dehydrated through an ethanol gradient (series of solutions from 30% to 100% ethanol), dehydrated briefly in 100% propylene oxide, then allowed to infiltrate overnight on a gentle rotator in a 1:1 mix of propylene oxide and Eponate resin (Ted Pella, Inc., kit with DMP30, #18010′). The following day, specimens were transferred into fresh 100% Eponate resin for 2-3 hours, then embedded in flat molds in 100% fresh Eponate resin, and embeddings were allowed to polymerize for 24-48 h at 60° C. Thin (70 nm) sections were cut using a Leica EM UC7 ultramicrotome, collected onto formvar-coated grids, stained with 2% uranyl acetate and Reynold's lead citrate, and examined in a JEOL JEM 1011 transmission electron microscope at 80 kV. Images were collected using an AMT digital imaging system with proprietary image capture software (Advanced Microscopy Techniques, Danvers, MA). Measurements of distances between melanosomes and mitochondria were quantified in FIJI (ImageJ) (Schindelin et al., 2012) by applying a customized macro to TEM micrographs. Melanosomes (N=˜50) were randomly selected for each condition within the whole image data set. Thirty Euclidean distances from the melanosome surface to the closest mitochondria surface were measured in nm. From these 30 single measurements the mean was calculated to give a final single mean value per melanosome-mitochondria event. A total of ˜50 events (N) were quantified per condition. Data were plotted and statistically analyzed using Prism 8 (Version 8.4.3). […] Cell area (μm^2), number of melanosome-mitochondria contacts, and number of mitochondria were quantified in FIJI (ImageJ) using polygon and multi-point selection tools. Melanosome identification and quantification were performed with images at 40,000× magnification or higher. […] All identifiable melanosomes in 4 cells per condition were quantified and classified, and the proportions of each stage were normalized to cell cytosolic area (determined by ImageJ).
# tyrosinase = test: Cycloheximide chase assay of tyrosinase protein stability; assay type: cell-based, human; settings: UACC257, 5 mM NAC, 0.1 mM NADPH, 20 μM MitoTEMPO for 48 h, then CHX
# Protocol: Cycloheximide chase assay: 72 h after siRNA transfection (sicontrol or siNNT), UACC257 melanoma cells were treated with a protein synthesis inhibitor, cyclohexamide (CHX, Sigma Aldrich #C7698, 50 μg/ml), for the indicated times and then immediately subjected to immunoblotting for tyrosinase protein expression. The expression of tyrosinase was quantified using ImageJ software based on band intensities and normalized to the intensities of the corresponding β-actin bands. The normalized tyrosinase expression was then defined as relative tyrosinase expression by setting the mean values at t=0 in each experimental group to 1.0. […] The siRNA-transfected cells were cultured for an additional 48 h in the presence of these agents and then examined by the CHX chase assay as described above. pLJM-1-EGFP or pLJM1-NNT/FLAG was introduced into UACC257 cells using Lipofectamine 3000, 48 after transfection, the transfection medium was replaced with fresh medium containing DMSO or 10 μM MG132 (Sigma Aldrich #M8699) and pre-incubated for 6 h. Then. CHX was added to assess tyrosinase protein stability as described above.
# UACC257 cells = test: siNNT-induced pigmentation with antioxidants, melanin content; assay type: cell-based, human; settings: NAC 5 mM, MitoTEMPO 20 μM daily for 72 h; NADPH 0.1 M
# Protocol: as §1, with “sIRNA transfection: A single treatment of 10 nmol/L of siRNA was delivered to a 60% confluent culture by transfection with Lipofectamine RNAiMAX (Life Technologies, #13778150) according to the manufacturer's recommendations. After 48-72 h of transfection, total RNA or protein was harvested. Melanin quantification:” for “Melanin quantification:”
# human skin = test: Topical treatment of a human subject (skin type 2); assay type: in vivo; settings: 100 uM in DMSO, 15 days, twice per day
# Protocol: A human subject with skin type 2 was treated with Hexetidine 100 uM in DMSO for 15 days, twice per day, individual.
# human skin explants [4] = test: Depigmentation of human skin explants by NNT activators; assay type: cell-based; settings: after 36 hours, DMSO-based carrier, FIGS. 13A-B
# Protocol: Skin samples considered surgical waste were obtained de-identified from healthy donors (IRB #2013P000093) undergoing reconstructive surgery, according to institutional regulations. Full thickness human abdominal skin explants were cultured in petri dishes with a solid phase and liquid phase phenol red free DMEM medium containing 20% penicillin/streptomycin/glutamine, 5% fungizone (Gibco), and 10% fetal bovine serum. Compounds were applied strictly on top of the explants, making sure no drip occurred into the underlying media. For UV irradiation experiments, a UV lamp (UV Products) was used at 1000 mJ/cm^2 UVB.
# The ability of ASS, Usnic acid, 4-hexylresorcinol, candesartan, Nigericin, elaidylphosphocholine, hexitidine, naproxol, and Ginkgolic acid to depigment skin was tested in human skin explants. A DMSO-based carrier solution was used. DMSO was used as a negative control. […]
Compound,toxicity (viability) [1],effect on pigmentation (human skin explants [2]),penetration of the epidermis (human skin explants [2]),melanin content (murine Melan-A cells),NNT protein levels (NNT),siNNT-induced melanosome maturation [3],total number of melanosomes per um^2 [3],siNNT-increased tyrosinase protein stability (tyrosinase),siNNT-mediated increase in pigmentation (UACC257 cells),depigmentation of human skin (human skin),irritation (human skin),ability to depigment skin (human skin explants [4])
"CCCCCCCCCCCCCCCC(=O)SCCNC(=O)CCNC(=O)[C@H](O)C(C)(C)COP(=O)(O)OP(=O)(O)OC[C@H]1O[C@@H](n2cnc3c(N)ncnc32)[C@H](O)[C@@H]1OP(=O)(O)O.[Li] [Palmitoyl-CoA, Palmitoyl coenzyme A lithium salt]",no significant toxicity,no effect on pigmentation,did not penetrate the epidermis,not,–,–,–,–,–,–,–,–
CC1(C)CC(NC(=O)C[P+](c2ccccc2)(c2ccccc2)c2ccccc2)CC(C)(C)N1[O] [MitoTEMPO],–,–,–,–,did not impact NNT protein levels,prevented the siNNT-induced phenotype,not altered,prevented,inhibited the siNNT-mediated increase in pigmentation,–,–,–
"CC(=O)N[C@@H](CS)C(=O)O [NAC, N-acetylcysteine]",–,–,–,–,did not impact NNT protein levels,prevented the siNNT-induced phenotype,not altered,prevented,inhibited the siNNT-mediated increase in pigmentation,–,–,–
"CCCCC(CC)CN1CN(CC(CC)CCCC)CC(C)(N)C1 (centres unmarked) [Hexetidine, 1,3-bis(2-ethylhexyl)-5-methyl-1,3-diazinan-5-amine]",–,–,–,–,–,–,–,–,–,successful depigmentation,without significant irritation,depigmenting effects
